Source: patent US10442804B2, “Compounds for the treatment of hepatitis B virus infection” (Gilead Sciences, Inc., priority 2017, dated 2019)

Assays:
[1] = tested on: HBV-infected NTCP-HepG2 cells, secreted HBsAg; assay: microbe, parasite or virus in culture; type: cell-based, hepatitis B virus (genotype D, AD38-derived); conditions: Hepatitis B virus, 120 h, secreted HBsAg in supernatant after 5 days; geometric mean of minimum four determinations; read-out: NTCP HBsAg EC50
Protocol: NTCP-HepG2 Antiviral Assay for Secreted HBsAg
HepG2 cells stably expressing sodium-taurocholate cotransporting polypeptide (NTCP-HepG2) were grown in Dulbecco's Modified Eagle Medium (DMEM) without sodium pyruvate (Thermo Fisher Scientific, Waltham, Mass.) supplemented with 10% fetal bovine serum, 2 mM L-glutamine, 1% penicillin/streptomycin, and 0.25 mg/mL G-418. NTCP-HepG2 cells were infected with 4000 genome equivalent per cell of genotype D (AD38-derived) HBV in DMEM without sodium pyruvate (Thermo Fisher Scientific, Waltham, Mass.) supplemented with 2% fetal bovine serum, 2 mM L-glutamine, 1% penicillin/streptomycin, 2.5% DMSO, and 4% PEG 8000 (Promega, Madison, Wis.). After 24-hour incubation, cells were washed three times with OptiMEM (Thermo Fisher Scientific, Waltham, Mass.) and fed with fresh DMEM without sodium pyruvate (Thermo Fisher Scientific, Waltham, Mass.) supplemented with 2% fetal bovine serum, 2 mM L-glutamine, 1% penicillin/streptomycin, and 2.5% DMSO. At 4 days after infection, infected NTCP-HepG2 cells were seeded on 384-well plates pre-coated with collagen at a density of 20000 cells per well containing serially diluted compounds of the present disclosure or DMSO (0.5%) in a final volume of 80 μl of DMEM without sodium pyruvate (Thermo Fisher Scientific, Waltham, Mass.) supplemented with 2% fetal bovine serum, 2 mM L-glutamine, 1% penicillin/streptomycin, and 1% DMSO. After an incubation time of 5 days, cell culture supernatant was collected and measured for HBsAg.
Secreted HBsAg in the supernatant were measured using a multiplex chemiluminescent MSD assay (Meso Scale Discovery, Rockville, Md.) using capture and detection antibody pairs specific for HBsAg. The EC50 values were calculated from the fit of the dose-response curves to a four-parameter equation. All EC50 values represent geometric mean values of a minimum of four determinations.

[2] = MT-4 cytotoxicity assay; type: cell-based, human; conditions: human, five days, Cell Titer Glo luminescence; read-out: MT-4 CC50
Protocol: Biological Example 2: MT-4 Cytotoxicity Assay
The MT-4 cell line (HTLV-1 transformed, human T lymphoblastoid cells) was obtained from the NIH AIDS Reagent program (Bethesda, Md.). MT-4 cells were maintained in RPMI-1640 media (Thermo Fisher Scientific, Waltham, Mass.) supplemented with 10% fetal bovine serum, 100 Units/mL penicillin, and 100 μg/mL streptomycin. For the MT-4 cytotoxicity assay, 0.4 μL of serially diluted solutions of certain compounds disclosed herein were added to 40 μL of cell maintenance media in 384-well black, solid bottom plate using a Biomek FX workstation (Beckman Coulter, Brea, Calif.). Two thousand cells in 35 μL were added to each well using a Biotek uFlow Workstation (Biotek, Winooski, Vt.). Each assay plate contained 10 μM puromycin (final concentration) and 0.5% DMSO in RPMI-1640 media as positive and negative controls, respectively. Assay plates were incubated for five days at 37° C. in an incubator set at 5% CO2 and 90% humidity. After five days, 22 μL of Cell Titer Glo reagent (Promega, Madison, Wis.) was added to the assay plates with a Biotek uFlow Workstation. Plates were subsequently placed on an Envision Plate Reader (Perkin Elmer, Waltham, Mass.) for five minutes before the luminescence signal was read. CC50 values were defined as the compound concentration that caused a 50% decrease in luminescence signal, and were calculated by non-linear regression using Pipeline Pilot software by applying a four parameter fit equation (Accelrys, San Diego, Calif.) and are reported in the following Table 1.

SMILES	EC50 [1]	CC50 at 5 days [2]
COCCCOc1cc2c(cc1OC(C)(C)C)-c1cc(=O)c(C(=O)O)cn1N1[C@@H]2CCC1(C)C [Example 25, (R)-11-(tert-butoxy)-12-(3-methoxypropoxy)-3,3-dimethyl-8-oxo-2,3,8,13b-tetrahydro-1H-pyrido[2,1-a]pyrrolo[1,2-c]phthalazine-7-carboxylic acid]	160 nM	> 10000 nM
COCCCOc1cc2c(cc1OC(C)(C)C)-c1cc(=O)c(C(=O)O)cn1N1[C@H]2CCC1(C)C [Example 26, (S)-11-(tert-butoxy)-12-(3-methoxypropoxy)-3,3-dimethyl-8-oxo-2,3,8,13b-tetrahydro-1H-pyrido[2,1-a]pyrrolo[1,2-c]phthalazine-7-carboxylic acid]	> 1000 nM	> 10000 nM
COCCCOc1cc2c(cc1OCC(F)F)-c1cc(=O)c(C(=O)O)cn1N1[C@@H]2CCC1(C)C [Example 27, (R)-11-(2,2-difluoroethoxy)-12-(3-methoxypropoxy)-3,3-dimethyl-8-oxo-2,3,8,13b-tetrahydro-1H-pyrido[2,1-a]pyrrolo[1,2-c]phthalazine-7-carboxylic acid]	3.7 nM	> 10000 nM
COCCCOc1cc2c(cc1C1CC1)-c1cc(=O)c(C(=O)O)cn1N1[C@@H]2CCC1(C)C [Example 28, (R)-11-cyclopropyl-12-(3-methoxypropoxy)-3,3-dimethyl-8-oxo-2,3,8,13b-tetrahydro-1H-pyrido[2,1-a]pyrrolo[1,2-c]phthalazine-7-carboxylic acid]	0.78 nM	8700 nM
COc1cc2c(cc1OCC1CC(=O)C1)[C@H]1CCC(C)(C)N1n1cc(C(=O)O)c(=O)cc1-2 [Example 37]	4 nM	> 10000 nM
COCCCOc1cc2c(cc1Cl)-c1cc(=O)c(C(=O)O)cn1N1CCCC(C)(C)C21 (stereo not shown) [Example 38, 13-chloro-12-(3-methoxypropoxy)-10,10-dimethyl-2-oxo-2,7,8,9,10,10a-hexahydrodipyrido[2,1-a:1′,2′-c]phthalazine-3-carboxylic acid]	27 nM	9900 nM
COCCCOc1c(OC)cc2c(c1Br)[C@H]1CCC(C)(C)N1n1cc(C(=O)O)c(=O)cc1-2 [Example 40, (R)-13-bromo-11-methoxy-12-(3-methoxypropoxy)-3,3-dimethyl-8-oxo-2,3,8,13b-tetrahydro-1H-pyrido[2,1-a]pyrrolo[1,2-c]phthalazine-7-carboxylic acid]	360 nM	8800 nM
COc1cc2c(cc1Oc1ncccn1)[C@H]1CCC(C)(C)N1n1cc(C(=O)O)c(=O)cc1-2 [Example 41, (R)-11-methoxy-3,3-dimethyl-8-oxo-12-(pyrimidin-2-yloxy)-2,3,8,13b-tetrahydro-1H-pyrido[2,1-a]pyrrolo[1,2-c]phthalazine-7-carboxylic acid]	120 nM	> 10000 nM
COc1cc2c(cc1C#Cc1cncn1C)[C@H]1CCC(C)(C)N1n1cc(C(=O)O)c(=O)cc1-2 [Example 42, (R)-11-methoxy-3,3-dimethyl-12-((1-methyl-1H-imidazol-5-yl)ethynyl)-8-oxo-2,3,8,13btetrahydro-1H-pyrido[2,1-a]pyrrolo[1,2-c]phthalazine-7-carboxylic acid]	4.8 nM	> 10000 nM
COc1cc2c(cc1C#CC(C)(C)OC)[C@H]1CCC(C)(C)N1n1cc(C(=O)O)c(=O)cc1-2 [Example 43]	7.6 nM	> 10000 nM
COc1cc2c(cc1-c1cnn(C(F)F)c1)[C@H]1CCC(C)(C)N1n1cc(C(=O)O)c(=O)cc1-2 [Example 44, (R)-12-(1-(Difluoromethyl)-1H-pyrazol-4-yl)-11-methoxy-3,3-dimethyl-8-oxo-2,3,8,13b-tetrahydro-1H-pyrido[2,1-a]pyrrolo[1,2-c]phthalazine-7-carboxylic acid]	5.5 nM	3000 nM
